From patent US11629155B2, “Small molecule antagonist compound TAC5 series having toll-like receptor 3/7/8/9 inhibitory function” (AJOU UNIVERSITY INDUSTRY-ACADEMIC COOPERATION FOUNDATION, priority 2018, dated 2023)
“Also recorded” adds a separate entry of the source.

Legend:
TLR9 = biological target: T1, TLR9 (Homo sapiens, UniProt Q9NR96); assay: CpG ODN-induced TNF-α or IL-6 secretion in THP1-derived macrophages; type: cell-based; conditions: dose-dependent manner, FIGS. 4E-4G
T1 construct: endogenous in cells; host or cells: THP1-derived macrophages (PMA-differentiated)
T1 sequence (Q9NR96 26-1032): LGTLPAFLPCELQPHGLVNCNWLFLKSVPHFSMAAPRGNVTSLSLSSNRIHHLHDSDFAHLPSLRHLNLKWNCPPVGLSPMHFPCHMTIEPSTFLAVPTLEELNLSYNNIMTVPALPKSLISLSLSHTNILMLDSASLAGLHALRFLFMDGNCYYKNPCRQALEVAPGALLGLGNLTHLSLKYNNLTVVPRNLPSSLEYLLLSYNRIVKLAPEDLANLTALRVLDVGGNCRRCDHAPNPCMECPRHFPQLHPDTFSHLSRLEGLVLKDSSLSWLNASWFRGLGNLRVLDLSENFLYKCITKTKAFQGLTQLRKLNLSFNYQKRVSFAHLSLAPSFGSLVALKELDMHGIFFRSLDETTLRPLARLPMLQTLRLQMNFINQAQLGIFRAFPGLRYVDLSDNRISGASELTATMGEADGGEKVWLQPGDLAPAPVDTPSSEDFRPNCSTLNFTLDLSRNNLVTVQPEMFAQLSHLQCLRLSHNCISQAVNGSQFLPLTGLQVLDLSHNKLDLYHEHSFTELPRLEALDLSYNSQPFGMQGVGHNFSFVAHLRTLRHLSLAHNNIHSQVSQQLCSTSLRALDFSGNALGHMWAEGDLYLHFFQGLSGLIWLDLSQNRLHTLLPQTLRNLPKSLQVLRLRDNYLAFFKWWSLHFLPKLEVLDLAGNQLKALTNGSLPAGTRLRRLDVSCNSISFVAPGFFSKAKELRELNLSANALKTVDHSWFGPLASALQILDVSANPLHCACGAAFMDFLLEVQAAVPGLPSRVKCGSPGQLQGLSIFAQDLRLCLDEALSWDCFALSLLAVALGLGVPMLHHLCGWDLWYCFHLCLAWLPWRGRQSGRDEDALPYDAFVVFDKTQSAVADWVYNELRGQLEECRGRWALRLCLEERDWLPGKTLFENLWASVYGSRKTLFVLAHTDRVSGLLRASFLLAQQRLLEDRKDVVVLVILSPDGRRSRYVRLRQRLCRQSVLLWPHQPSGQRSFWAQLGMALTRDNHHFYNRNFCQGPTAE

MARC/lpr mice = assay: SLE mouse model (MARC/lpr mice); type: in vivo
Protocol: QRT-PCR analysis was performed to detect the expression levels of specific genes in lymph nodes, spleen and kidney. Total RNA was isolated from lymph nodes, spleen and kidneys of 16-week-old mice using TRI reagent (Sigma-Aldrich, Co.). RNA was applied to qRT-PCR based on SYBR green (Enzo Life Sciences, Inc., Farmingdale, N.Y., USA). The following primers for the marker gene were used: mTLR7, 5′-ATGTGGACACGGAAGAGACAA-3′(SEQ ID NO: 1) and 5′-GGT AAG GGT AAG ATT GGT G-3′(SEQ ID NO: 2); mTLR9, 5′-ATGGTTCTCCGTCGAAGGACT-3′ (SEQ ID NO: 3) and 5′-GAG GCT TCA GCT CAC AGG G-3′(SEQ ID NO: 4); mIL-6, 5′-GAGGATACCACTCCCAACAGACC-3′(SEQ ID NO: 5) and 5′-AAGTGCATCATCGTTGTTCATACA-3′(SEQ ID NO: 6); mMyd88, 5′-CACCTGTGTCTGGTCCATTG-3′(SEQ ID NO: 7) and 5′-CTGTTGGACACCTGGAGACA-3′(SEQ ID NO: 8); mIL-17, 5′-GCT CCA GAA GGC CCT CAG A-3′ (SEQ ID NO: 9) and 5′-AGC TTT CCC TCC GCA TTG A-3′(SEQ ID NO: 10); mGAPDH, 5′-CTCAACACGGGAAACCTCAC-3′ (SEQ ID NO: 11) and 5′-CGCTCCACCAACTAAGAACG-3′(SEQ ID NO: 12) (Bioneer, Daejeon, Korea). Quantified individual RNA expression levels were normalized to GAPDH and expressed as RNA expression levels relative to the corresponding wild-type mice.
The therapeutic potential of TAC5-a on systemic autoimmunity was further determined by intraperitoneally injecting 10 nmol/g (daily dosage) of TAC5-a (dissolved in 1% dimethylsulfoxide [DMSO]) into MARC/lpr mice for 11 days. This inhibitor clearly influenced mouse lymphatic proliferation. […] The production of anti-dsDNA autoantibodies was kept low (FIG. 6B), and serum antinuclear antibodies (ANAs) were reduced by treatment with inhibitors (FIG. 6C). The detection of certain proteins, such as albumin, in the urine serves as a marker for a kidney pathology called glomerulonephritis (GN), which is caused by inflammation of the glomerulus. […] Then, the effect of TAC5-a on the relative expression behaviors of specific genes in lymph nodes, spleen and kidneys at the transcription level was confirmed.

Q: For Nc1cccc(COc2cccnc2N)c1 [TAC5-a, 3-((3-aminobenzyl)oxy)pyridin-2-amine], which “TLR9-mediated TNF-α or IL-6 secretion” value (TLR9) is on record?
A: significantly inhibited

Q: And the “production of anti-dsDNA autoantibodies” value (MARC/lpr mice; 10 nmol/g daily i.p. for 11 days, FIG. 6B)?
A: kept low

Q: What about the “serum antinuclear antibodies (ANAs)” value (MARC/lpr mice; 10 nmol/g daily i.p. for 11 days, FIG. 6C) of the same compound?
A: reduced

Q: And the “content of urine albumin” value (MARC/lpr mice; 10 nmol/g daily i.p. for 11 days, FIG. 6D)?
A: significantly reduced

Q: What about the “lymph node swelling, appearance evaluation or size decrease” value (MARC/lpr mice; 10 nmol/g daily intraperitoneally for 11 days, FIG. 6A) of the same compound?
A: clearly observed; also recorded: significantly prevented

Q: What about the “IL-6 mRNA level in lymph nodes (qRT-PCR)” value (MARC/lpr mice; FIGS. 6E to 6G) of the same compound?
A: significantly reduced

Q: And the “IL-17 mRNA level in lymph nodes (qRT-PCR)” value (MARC/lpr mice; FIGS. 6E to 6G)?
A: significantly reduced

Q: What about the “TLR7 mRNA level in lymph nodes (qRT-PCR)” value (MARC/lpr mice; FIGS. 6E to 6G) of the same compound?
A: significantly reduced
